Assay results reported in patent US12169196B2, “Human iPSC-based drug testing platform for muscular dystrophy” (The Johns Hopkins University, priority 2019, dated 2024).

Legend:
p21 (WAF1/CIP1) = assay: Western blot of p21 protein expression in D2 myoblasts; format: cell-based, human; details: ginsenoside 25 μM or FLT3 recombinant protein 100 ng/ml, 30 min
Description: FIG. 3A: Top pathways selected by ingenuity pathway analysis of microarray result from ginsenoside Rd and fenofibrate-treated D2 myoblasts for 24 hours. Absolute z-score values above 2 were highlighted in red. FIGS. 3B and 3D: Quantification of western blot of p21 protein expression in D2 myoblasts treated with ginsenoside (25 μM), FLT3 recombinant protein (100 ng/ml) or DMSO for 30 min, n=4, *P≤0.05. FIG. 3C, 3E: Quantification of western blot of phosphorylated ERK 1/2 (p-ERK 1/2) in D2 myoblasts treated with ginsenoside (25 μM), FLT3 recombinant protein (100 ng/ml) or DMSO for 30 min, n=4, *P≤0.05. […] (Data=Mean±SEM, FIGS. 3D, 3E: one-way ANOVA with Dunnett's multiple comparison test with DMSO negative control, FIG. 3G: one-way ANOVA with Tukey's multiple comparison test).
Whole-cell extracts were prepared by lysing cells on plate with RIPA buffer (CST) supplemented by proteinase inhibitor and phosphatase inhibitor cocktail (CST). Western blotting was performed according to the standard protocol using precast NuPAGE (4-12%) Bis-Tris gel (Invitrogen). Protein transfer was performed with the Bio-Rad turbo or wet/tank blotting system. […] Membranes were then incubated with a secondary IRDye 800 conjugated anti-rabbit IgG, or Alexa Fluor 680 anti-mouse IgG and proteins were visualized and quantified using the LI-COR Odyssey Infrared Imaging System (LI-COR). […]

mdx^5cv mice [1] = assay: Masson's trichrome fibrosis in diaphragm muscle; format: in vivo, mouse; details: ip, 10 mg/kg, 1344 h
Description: (§1) All animal experiments were approved by the Institutional Animal Care and Use Committee (IACUC) of The Johns Hopkins University, School of Medicine (Baltimore, Maryland). Mdx^5cv (B6Ros.Cg-Dmdmdx-5Cv/J) were obtained from The Jackson Laboratory. Mice were maintained in a 12-h light cycle (7 am-7 pm) with ad libitum access to food and water. […] Ginsenoside Rd was suspended in saline containing 10% 1,3-propanediol as vector.
(§2) Gastrocnemius, tibialis anterior, and diaphragm muscles were embedded in OCT, frozen in isopentane, and cross-sectioned (˜2-10 μm thickness). The sections were also stained with DAPI to visualize nuclei. In mice where Evans blue dye (EBD, 10 mg/ml) was used to evaluate membrane damage, EBD was injected at 0.05 ml/10 g intraperitoneally, 24 hours before sacrificing the mice. To evaluate EBD staining, gastrocnemius muscle sections were fixed with acetone and imaged with fluorescence microscopy. The area of EBD as a percentage of total area was calculated. To evaluate the number of central nucleated fibers, sections of the tibialis anterior muscle were stained with hematoxylin and eosin. Central nucleated fiber number was counted and analyzed against total fiber number. Diaphragm sections (10 μm) were stained with Masson's trichrome to determine collagen content. The stained areas were quantified against the total area.

mdx^5cv mice [2] = assay: Evans blue staining and central nucleated fiber histology; format: in vivo, mouse; details: 8 weeks treatment
Description: as §1, §2

mdx^5cv mice [3] = assay: Treadmill running; format: in vivo, mouse; details: 1344 h
Description: as §1
Forelimb grip strength was measured as maximal tensile force using a computerized force transducer (Grip Strength Meter, Bioseb). Five measurements were performed for each animal and the maximum value was used for the analysis. Treadmill testing was performed using a motor-driven treadmill (Columbus Instruments). Prior to the test day, acclimatization was performed 5 times over a period of 2 weeks at 10 m/min. On the test day, mice ran at 5 m/min for 5 min (warm up) and the speed was increased 1 m/min every min up to 10 m/min. Mice were considered exhausted when they sat for more than 10 sec on a shock pad for the third time.

CC(C)=CCC[C@](C)(O[C@@H]1O[C@H](CO)[C@@H](O)[C@H](O)[C@H]1O)[C@H]1CC[C@]2(C)[C@@H]1[C@H](O)C[C@@H]1[C@@]3(C)CC[C@H](O[C@@H]4O[C@H](CO)[C@@H](O)[C@H](O)[C@H]4O[C@@H]4O[C@H](CO)[C@@H](O)[C@H](O)[C@H]4O)C(C)(C)[C@@H]3CC[C@]12C [ginsenoside Rd]
levels of p21 (p21 (WAF1/CIP1)): Increased levels of p21
reduction of levels of fibrosis in diaphragm (mdx^5cv mice [1]): 29%
number of Evans blue dye positive fibers (mdx^5cv mice [2]; gastrocnemius): not significantly different
central nucleated fibers (mdx^5cv mice [2]; tibialis anterior): not significantly different
improvement of endurance on treadmill running (mdx^5cv mice [3]): no effect
